Experimental data as given in US8592594B2, “Tetrahydro-quinoline derivatives” (Hoffmann-La Roche Inc., priority 2010, dated 2013).

System: recombinant AMPK proteins (α1β1γ1, α2β1γ1, α1(1-335), α1(1-394) or α2(1-394))
Test: Scintillation Proximity Assay (SPA), AMPK activation
Assay type: biochemical, human
Details: effective concentration of activator for 50% of maximal enzyme activity; 50 nM AMPK, 2 μM ATP, 2 μM biotin-SAMS, 30° C., 2 hours
Experimental: Recombinant human AMPK α1β1γ1, α2β1γ1 or AMPK α subunit truncations α1(1-335), α1(1-394) and α2(1-394) were constructed, expressed and purified as described previously (Pang, T., Zhang, Z. S., Gu, M., Qiu, B. Y., Yu, L. F., Cao, P. R., Shao, W., Su, M. B., Li, J. Y., Nan, F. J., and Li, J. (2008). Rat liver AMPK heterotrimer enzyme was obtained from Upstate (Billerica, Mass., U.S.A.).
Scintillation Proximity Assay
Before the Scintillation Proximity Assay (SPA) assay, 200 nM recombinant AMPK proteins (α1β1γ1, α2β1γ1, α1(1-335), α1(1-394) or α2(1-394)) were fully phosphorylated as described previously (Pang et al., 2008). SPA reactions were performed in 96-well plates at a final volume of 50 μL containing 20 mM Tris-HCl pH 7.5, 5 mM MgCl2, 1 mM DTT, 2 μM biotin-SAMS, 2 μM ATP, 0.2 μCi/well [γ-^33P]ATP, and various amount of activator. Reactions were initiated by the addition of 50 nM recombinant AMPK proteins to the reaction solutions and incubated at 30° C. for 2 hours. After that, reactions were terminated by the addition of 40 μL stop solution containing 80 μg streptavidin-coated SPA beads per well, 50 mM ED TA, 0.1% Triton X-100 in PBS, pH 7.5 and incubated for 1 hour. Finally, a 160 μL suspension solution containing 2.4 M CsCl, 50 mM EDTA, and 0.1% Triton X-100 in PBS (pH 7.5) was added to the reaction solution to suspend SPA beads completely. SPA signals were determined with a Wallac MicroBeta plate counter (PerkinElmer) 30 min later for calculation of the amount of product formed. The amount of products formed in 2 hour was plotted against activator concentrations to determine the effective concentration of the activator (EC50) required for 50% of maximal enzyme activity.

Row | SMILES | EC50 [µM]
1 | CS(=O)(=O)c1cccc(C2CC3(CC3)c3cc(C(=O)O)ccc3N2)c1 (stereo not drawn) [Example 6, 2-(3-Methanesulfonyl-phenyl)-spiro(cyclopropane-1,4′-1′,2′,3′,4′-tetrahydroquinoline)-6-carboxylic acid] | 7.41
2 | O=C(O)c1ccc2c(c1)C1(CC1)CC(c1cc(F)ccc1Br)N2 (stereo not drawn) [Example 7, 2-(2-Bromo-5-fluoro-phenyl)-spiro(cyclopropane-1,4′-1′,2′,3′,4′-tetrahydroquinoline)-6-carboxylic acid] | 2.29
3 | O=C(O)c1ccc2c(c1)C1(CC1)CC(c1cccc(F)c1)N2 (stereo not drawn) [Example 8, 2-(3-Fluoro-phenyl)-spiro(cyclopropane-1,4′-1′,2′,3′,4′-tetrahydroquinoline)-6-carboxylic acid] | 4.44
4 | O=C(O)c1ccc2c(c1)C1(CCCCC1)CC(c1cc(F)ccc1Br)N2 (stereo not drawn) [Example 9, 2-(2-Bromo-5-fluoro-phenyl)-spiro(cyclohexane-1,4′-1′,2′,3′,4′-tetrahydroquinoline)-6-carboxylic acid] | 1.68
5 | CS(=O)(=O)c1ccc(F)cc1C1CC2(CC2)c2cc(C(=O)O)ccc2N1 (stereo not drawn) [Example 11, 2-(5-Fluoro-2-methanesulfonyl-phenyl)-spiro(cyclopropane-1,4′-1′,2′,3′,4′-tetrahydroquinoline)-6-carboxylic acid] | 4.96
6 | CS(=O)(=O)c1ccc(S(C)(=O)=O)c(C2CC3(CC3)c3cc(C(=O)O)ccc3N2)c1 (stereo not drawn) [Example 12, 2-(2,5-Dimethanesulfonyl-phenyl)-spiro(cyclopropane-1,4′-1′,2′,3′,4′-tetrahydroquinoline)-6-carboxylic acid] | 5.92
7 | CN(C)C(=O)N1c2ccc(C(=O)O)cc2C2(CC2)CC1c1cc(Cl)ccc1Cl (stereo not drawn) [Example 13, 2-(2,5-Dichloro-phenyl)-1-dimethylcarbamoyl-spiro(cyclopropane-1,4′-1′,2′,3′,4′-tetrahydroquinoline)-6-carboxylic acid] | 2.63
8 | CC1(C)CC(c2cc(Cl)ccc2F)Nc2ccc(CC(=O)O)cc21 (stereo not drawn) [Example 18, [2-(5-Chloro-2-fluoro-phenyl)-4,4-dimethyl-1,2,3,4-tetrahydro-quinolin-6-yl]-acetic acid] | 4.58
9 | C=CC1(C)CC(c2ccc(F)c(Cl)c2)Nc2ccc(C(=O)O)cc21 (stereo not drawn) [Example 19, 2-(3-Chloro-4-fluoro-phenyl)-4-methyl-4-vinyl-1,2,3,4-tetrahydro-quinoline-6-carboxylic acid] | 2.13
10 | CC1(c2ccccc2)CC(c2ccc(F)c(Cl)c2)Nc2ccc(C(=O)O)cc21 (stereo not drawn) [Example 20, 2-(3-Chloro-4-fluoro-phenyl)-4-methyl-4-phenyl-1,2,3,4-tetrahydro-quinoline-6-carboxylic acid] | 3.31
11 | CC(C)N1CCN(c2cccc(C3CC(C)(C)c4cc(C(=O)O)ccc4N3)c2)CC1 (stereo not drawn) [Example 23, 2-[3-(4-Isopropyl-piperazin-1-yl)-phenyl]-4,4-dimethyl-1,2,3,4-tetrahydro-quinoline-6-carboxylic acid] | 7.02
12 | CCC1(C)CC(c2ccc(F)c(Cl)c2)N(CCC(C)C)c2ccc(C(=O)O)nc21 (stereo not drawn) [Example 27, 6-(3-Chloro-4-fluoro-phenyl)-8-ethyl-8-methyl-5-(3-methyl-butyl)-5,6,7,8-tetrahydro-[1,5]naphthyridine-2-carboxylic acid] | 1.49

More lines, in order of falling EC50, values ahead:

Row | EC50 [µM] | SMILES
13 | 13.2 | O=C(O)c1ccc2c(c1)C1(CC1)CC(c1cc(Cl)cc(Cl)c1)N2 (stereo not drawn) [Example 4, 2-(3,5-Dichloro-phenyl)-spiro(cyclopropane-1,4′-1′,2′,3′,4′-tetrahydroquinoline)-6-carboxylic acid]
14 | 11.4 | Cc1ccc(F)cc1C1CC2(CC2)c2cc(C(=O)NC3CCC3)ccc2N1 (stereo not drawn) [Example 28, 2-(5-Fluoro-2-methyl-phenyl)-spiro(cyclopropane-1,4′-1′,2′,3′,4′-tetrahydroquinoline)-6-carboxylic acid cyclobutylamide]
15 | 8.61 | CC1(C)CC(C(C)(C)c2ccccc2)Nc2ccc(C(=O)O)cc21 (stereo not drawn) [Example 16, 4,4-Dimethyl-2-(1-methyl-1-phenyl-ethyl)-1,2,3,4-tetrahydro-quinoline-6-carboxylic acid]
16 | 7.6 | CC1(C)CC(c2cc(Cl)ccc2Cl)Nc2ccc(C(=O)O)cc21 (stereo not drawn) [Example 15, 2-(2,5-Dichloro-phenyl)-4,4-dimethyl-1,2,3,4-tetrahydro-quinoline-6-carboxylic acid]
17 | 6.12 | O=C(O)c1ccc2c(c1)C1(CC1)CC(c1cc(Cl)ccc1Cl)N2 (stereo not drawn) [Example 3, 2-(2,5-Dichloro-phenyl)-spiro(cyclopropane-1,4′-1′,2′,3′,4′-tetrahydroquinoline)-6-carboxylic acid]
18 | 5.35 | CC1(C)CC(c2cccc(N3CCOCC3)c2)Nc2ccc(C(=O)O)cc21 (stereo not drawn) [Example 22, 4,4-Dimethyl-2-(3-morpholin-4-yl-phenyl)-1,2,3,4-tetrahydro-quinoline-6-carboxylic acid]
19 | 4.83 | C=CC1(C)CC(c2ccc(F)c(Cl)c2)Nc2ccc(C(=O)O)nc21 (stereo not drawn) [Example 25, 6-(3-Chloro-4-fluoro-phenyl)-8-methyl-8-vinyl-5,6,7,8-tetrahydro-[1,5]naphthyridine-2-carboxylic acid]
20 | 4.54 | CC1(C)CC(c2cc(Cl)ccc2F)Nc2cc(Cl)c(C(=O)O)cc21 (stereo not drawn) [Example 17, 7-Chloro-2-(5-chloro-2-fluoro-phenyl)-4,4-dimethyl-1,2,3,4-tetrahydro-quinoline-6-carboxylic acid]
21 | 3.76 | O=C(O)c1ccc2c(c1)C1(CC1)CC(c1cc(Cl)ccc1Cl)N2Cc1ccccc1 (stereo not drawn) [Example 14, 1-Benzyl-2-(2,5-dichloro-phenyl)-spiro(cyclopropane-1,4′-1′,2′,3′,4′-tetrahydroquinoline)-6-carboxylic acid]
22 | 3.48 | O=C(O)c1ccc2c(c1)C1(CCCC1)CC(c1cc(F)ccc1Br)N2 (stereo not drawn) [Example 10, 2-(2-Bromo-5-fluoro-phenyl)-spiro(cyclopentane-1,4′-1′,2′,3′,4′-tetrahydroquinoline)-6-carboxylic acid]
23 | 3.21 | O=C(O)c1ccc2c(c1)C1(CC1)CC(c1cc(Br)ccc1F)N2 (stereo not drawn) [Example 2, 2-(5-Bromo-2-fluoro-phenyl)-spiro(cyclopropane-1,4′-1′,2′,3′,4′-tetrahydroquinoline)-6-carboxylic acid]
24 | 2.47 | Cc1ccc(F)cc1C1CC2(CC2)c2cc(C(=O)N3CCOCC3)ccc2N1 (stereo not drawn) [Example 30, [2-(5-Fluoro-2-methyl-phenyl)-spiro(cyclopropane-1,4′-1′,2′,3′,4′-tetrahydroquinolin)-6-yl]-morpholin-4-yl-methanone]
25 | 2.1 | CCC1(C)CC(c2ccc(F)c(Cl)c2)Nc2ccc(C(=O)O)nc21 (stereo not drawn) [Example 26, 6-(3-Chloro-4-fluoro-phenyl)-8-ethyl-8-methyl-5,6,7,8-tetrahydro-[1,5]naphthyridine-2-carboxylic acid]
26 | 2.07 | Cc1ccc(F)cc1C1CC2(CC2)c2cc(C(=O)O)ccc2N1 (stereo not drawn) [Example 1, 2-(5-Fluoro-2-methyl-phenyl)-spiro(cyclopropane-1,4′-1′,2′,3′,4′-tetrahydroquinoline)-6-carboxylic acid]
27 | 1.24 | O=C(O)c1ccc2c(c1)C1(CC1)CC(c1cc(Cl)ccc1F)N2 (stereo not drawn) [Example 5, 2-(5-Chloro-2-fluoro-phenyl)-spiro(cyclopropane-1,4′-1′,2′,3′,4′-tetrahydroquinoline)-6-carboxylic acid]
